Data: patent US12479845B2, “Imidazopyridine derivative compounds and use of same” (HANMI PHARM. CO., LTD., priority 2019, dated 2025)

Test system: NCI-H1417 cells
Assay: Cell growth suppression test (CellTiter-Glo Luminescent Cell Viability Assay, 10 days treatment)
Format: cell-based
Details: Homo sapiens, 240 h, treated for 10 days
Experimental: Cell growth suppression effects of the synthesized compounds on NCI-H1417 cells were identified. The cells were treated with the synthesized compounds for 10 days. Then, in order to test the cell growth suppression, CellTiter-Glo Luminescent Cell Viability Assay (available from Promega, USA) was used. This test is to measure emission signals proportional to the number of ATPs based on a fixed amount of ATPs, which represents the presence of metabolically active cells, thereby determining the number of viable cells. The results are expressed as a Gl50 value. As for a control, GSK2879552 (available from GlaxoSmithKline USA) was used.

GI50 [nM] | SMILES
311 | O=C(O)c1ccc(CN2CCC(CN[C@@H]3C[C@H]3c3ccccc3)CC2)cc1 [Control, GSK2879552, reference compound]
27 | CCN(CC)c1ccc(-n2c(-c3ccc(C#N)c(F)c3)nc3c(N4CCC[C@@H](N)C4)ccnc32)cc1 [Example 21, (R)-4-(7-(3-aminopiperidine-1-yl)-3-(4-(diethylamino)phenyl)-3H-imidazo[4,5-b]pyridine-2-yl)-2-fluorobenzonitrile]
62 | N#Cc1ccc(-c2nc3c(N4CCC[C@@H](N)C4)ccnc3n2-c2ccc(OC3CCCC3)cc2F)cc1F [Example 30]
44 | N#Cc1ccc(-c2nc3c(N4CCC[C@@H](N)C4)ccnc3n2-c2ccc(N3CCOCC3)cc2F)cc1F [Example 33, (R)-4-(7-(3-aminopiperidine-1-yl)-3-(2-fluoro-4-morpholinophenyl)-3H-imidazo[4,5-b]pyridine-2-yl)-2-fluorobenzonitrile]
101 | CN1CCN(c2ccc(-n3c(-c4ccc(C#N)c(F)c4)nc4c(N5CCC[C@@H](N)C5)ccnc43)c(F)c2)CC1 [Example 34]
148 | N#Cc1ccc(-c2nc3c(N4CCC[C@@H](N)C4)ccnc3n2-c2cccc(OCCN3CCOCC3)c2)cc1F [Example 37, (R)-4-(7-(3-aminopiperidine-1-yl)-3-(3-(2-morpholinoethoxy)phenyl)-3H-imidazo[4,5-b]pyridine-2-yl)-2-fluorobenzonitrile]
612 | N#Cc1ccc(-c2nc3c(N4CCC[C@@H](N)C4)ccnc3n2-c2ccc(C(=O)N3CCOCC3)cc2)cc1F [Example 38, (R)-4-(7-(3-aminopiperidine-1-yl)-3-(4-(morpholino-4-carbonyl)phenyl)-3H-imidazo[4,5-b]pyridine-2-yl)-2-fluorobenzonitrile]
42 | N#Cc1ccc(-c2nc3c(N4CCC[C@@H](N)C4)ccnc3n2-c2ccc(O)cc2)cc1F [Example 40, (R)-4-(7-(3-aminopiperidine-1-yl)-3-(4-hydroxyphenyl)-3H-imidazo[4,5-b]pyridine-2-yl)-2-fluorobenzonitrile]
26 | N#Cc1ccc(-c2nc3c(N4CCC[C@@H](N)C4)ccnc3n2-c2ccc3c(c2)CCC3)cc1F [Example 42, (R)-4-(7-(3-aminopiperidine-1-yl)-3-(2,3-dihydro-1H-indene-5-yl)-3H-imidazo[4,5-b]pyridine-2-yl)-2-fluorobenzonitrile]
60 | CC(C)c1ccc(-n2c(-c3ccc(C#N)c(F)c3)nc3c(N4CCC[C@@H](N)C4)ccnc32)cc1 [Example 43, (R)-4-(7-(3-aminopiperidine-1-yl)-3-(4-isopropylphenyl)-3H-imidazo[4,5-b]pyridine-2-yl)-2-fluorobenzonitrile]
171 | Cn1ccc2cc(-n3c(-c4ccc(C#N)c(F)c4)nc4c(N5CCC[C@@H](N)C5)ccnc43)ccc21 [Example 44, (R)-4-(7-(3-aminopiperidine-1-yl)-3-(1-methyl-1H-indole-5-yl)-3H-imidazo(4,5-b)pyridine-2-yl)-2fluorobenzonitrile]
171 | Cc1ccc(-n2c(-c3ccc(C#N)c(F)c3)nc3c(N4CCC[C@@H](N)C4)ccnc32)nc1 [Example 45, (R)-4-(7-(3-aminopiperidine-1-yl)-3-(5-methylpyridine-2-yl)-3H-imidazo[4,5-b]pyridine-2-yl)-2-fluorobenzonitrile]
303 | N#Cc1ccc(-c2nc3c(N4CCC[C@@H](N)C4)ccnc3n2-c2ccc(C3CCCCC3)cc2)cc1F [Example 46, (R)-4-(7-(3-aminopiperidine-1-yl)-3-(4-cyclohexylphenyl)-3H-imidazo[4,5-b]pyridine-2-yl)-2-fluorobenzonitrile]
360 | C=Cc1cccc(-n2c(-c3ccc(C#N)c(F)c3)nc3c(N4CCC[C@@H](N)C4)ccnc32)c1 [Example 47, (R)-4-(7-(3-aminopiperidine-1-yl)-3-(3-vinylphenyl)-3H-imidazo[4,5-b]pyridine-2-yl)-2-fluorobenzonitrile]
23 | COCCCN(C)c1ccc(-n2c(-c3ccc(C#N)c(F)c3)nc3c(N4CCC[C@@H](N)C4)ccnc32)cc1 [Example 48, (R)-4-(7-(3-aminopiperidine-1-yl)-3-(4-((3-methoxypropyl)(methyl)amino)phenyl)-3H-imidazo[4,5-b]pyridine-2-yl)-2-fluorobenzonitrile]
242 | CCCCCCc1ccc(-n2c(-c3ccc(C#N)c(F)c3)nc3c(N4CCC[C@@H](N)C4)ccnc32)cc1 [Example 51, (R)-4-(7-(3-aminopiperidine-1-yl)-3-(4-hexylphenyl)-3H-imidazo[4,5-b]pyridine-2-yl)-2-fluorobenzonitrile]
30 | CO[C@H]1CCN(c2ccc(-n3c(-c4ccc(C#N)cc4F)nc4c(N5CCC[C@@H](N)C5)ccnc43)c(F)c2)C1 [Example 52, 4-(7-((R)-3-aminopiperidine-1-yl)-3-(2-fluoro-4-((S)-3-methoxypyrrolidine-1-yl)phenyl)-3H-imidazo[4,5-b]pyridine-2-yl)-3-fluorobenzonitrile]
> 1000 | COc1cc(C#N)ccc1-c1nc2c(N3CCC[C@@H](N)C3)ccnc2n1-c1ccc(N2CC[C@H](OC)C2)cc1F [Example 53, 4-(7-((R)-3-aminopiperidine-1-yl)-3-(2-fluoro-4-((S)-3-methoxypyrrolidine-1-yl)phenyl)-3H-imidazo[4,5-b]pyridine-2-yl)-3-methoxybenzonitrile]
21 | Cn1ccc2cc(-n3c(-c4ccc(C#N)c(F)c4)nc4c(N5CCC[C@@H](N)C5)ccnc43)cnc21 [Example 54, (R)-4-(7-(3-aminopiperidine-1-yl)-3-(1-methyl-1H-pyrrolo[2,3-b]pyridine-5-yl)-3H-imidazo[4,5-b]pyridine-2-yl)-2-fluorobenzonitrile]
7.9 | Cn1ncc2cc(-n3c(-c4ccc(C#N)c(F)c4)nc4c(N5CCC[C@@H](N)C5)ccnc43)ccc21 [Example 55, (R)-4-(7-(3-aminopiperidine-1-yl)-3-(1-methyl-1H-indazole-5-yl)-3H-imidazo[4,5-b]pyridine-2-yl)-2-fluorobenzonitrile]
14 | CO[C@H]1CCCN(c2ccc(-n3c(-c4ccc(C#N)c(F)c4)nc4c(N5CCC[C@@H](N)C5)ccnc43)c(F)c2)C1 [Example 56]
53 | CN(C)C1CCN(c2ccc(-n3c(-c4ccc(C#N)c(F)c4)nc4c(N5CCC[C@@H](N)C5)ccnc43)c(F)c2)C1 (stereo partly drawn) [Example 57, 4-(7-((R)-3-aminopiperidine-1-yl)-3-(4-(3-(dimethylamino)pyrrolidine-1-yl)-2-fluorophenyl)-3H-imidazo[4,5-b]pyridine-2-yl)-2-fluorobenzonitrile]
64 | N#Cc1ccc(-c2nc3c(N4CCC[C@@H](N)C4)ccnc3n2-c2ccc3scnc3c2)cc1F [Example 58, (R)-4-(7-(3-aminopiperidine-1-yl)-3-(benzo[d]thiazole-5-yl)-3H-imidazo[4,5-b]pyridine-2-yl)-2-fluorobenzonitrile]
39 | CO[C@H]1CCN(c2ccc(-n3c(-c4ccc(C#N)c(F)c4)nc4c(N5CCC6(CCNC6)C5)ccnc43)c(F)c2)C1 (stereo partly drawn) [Example 65, 2-fluoro-4-(3-(2-fluoro-4-((S)-3-methoxypyrrolidine-1-yl)phenyl)-7-(2,7-diazaspiro[4.4]nonane-2-yl)-3H-imidazo[4,5-b]pyridine-2-yl)benzonitrile]
23 | CO[C@H]1CCN(c2ccc(-n3c(-c4ccc(C#N)c(F)c4)nc4c(N5CCC6(CC5)CNC6)ccnc43)c(F)c2)C1 [Example 66, (S)-2-fluoro-4-(3-(2-fluoro-4-(3-methoxypyrrolidine-1-yl)phenyl)-7-(2,7-diazaspiro[3.5]nonane-7-yl)-3H-imidazo[4,5-b]pyridine-2-yl)benzonitrile]
> 1000 | CO[C@H]1CCN(c2ccc(-n3c(-c4ccc(C#N)c(F)c4)nc4c(N5CC6COCC6C5)ccnc43)c(F)c2)C1 (stereo partly drawn) [Example 68, 2-fluoro-4-(3-(2-fluoro-4-((S)-3-methoxypyrrolidine-1-yl)phenyl)-7-(tetrahydro-1H-furo[3,4-c]pyrrole-5(3H)-yl)-3H-imidazo[4,5-b]pyridine-2-yl)benzonitrile]
> 1000 | CO[C@H]1CCN(c2ccc(-n3c(-c4ccc(C#N)c(F)c4)nc4c(N5CC6(CNC6)C5)ccnc43)c(F)c2)C1 [Example 69, (S)-2-fluoro-4-(3-(2-fluoro-4-(3-methoxypyrrolidine-1-yl)phenyl)-7-(2,6-diazaspiro[3.3]heptane-2-yl)-3H-imidazo[4,5-b]pyridine-2-yl) benzonitrile]
34 | CO[C@H]1CCN(c2ccc(-n3c(-c4ccc(C#N)c(F)c4)nc4c(N5CCC6(CCNCC6)CC5)ccnc43)c(F)c2)C1 [Example 70, (S)-2-fluoro-4-(3-(2-fluoro-4-(3-methoxypyrrolidine-1-yl)phenyl)-7-(3,9-diazaspiro[5.5]undecan-3-yl)-3H-imidazo[4,5-b]pyridine-2-yl) benzonitrile]
44 | CO[C@H]1CCN(c2ccc(-n3c(-c4ccc(C#N)c(F)c4)nc4c(N5CC6CNCC(C6)C5)ccnc43)c(F)c2)C1 [Example 71, 4-(7-(3,7-diazabicyclo[3.3.1]nonane-3-yl)-3-(2-fluoro-4-((S)-3-methoxypyrrolidine-1-yl)phenyl)-3H-imidazo[4,5-b]pyridine-2-yl)-2-fluorobenzonitrile]

SMILES | GI50 [nM]
CO[C@H]1CCN(c2ccc(-n3c(-c4ccc(C#N)c(F)c4)nc4c(N5C6CCC5CC(N)C6)ccnc43)c(F)c2)C1 (stereo partly drawn) [Example 63, 4-(7-(3-amino-8-azabicyclo[3.2.1]octane-8-yl)-3-(2-fluoro-4-((S)-3-methoxypyrrolidine-1-yl)phenyl)-3H-imidazo[4,5-b]pyridine-2-yl)-2-fluorobenzonitrile] | 290
